Measurements published in US8338380B2, “Use of the peptide RFMWMR as a therapeutic agent” (priority 2007, dated 2012).

Test system: drug-resistant Mycobacterium tuberculosis
Conditions: 5 micrograms per ml

Ac-RFMWMR-NH2 [Ac-Arg-Phe-Met-Trp-Met-Arg-NH2]
% inhibition: 100.0%
